This is an account of results in paper PMC3305890, “Synthesis and pharmacological characterization of potent, selective, and orally bioavailable isoindoline class dipeptidyl peptidase IV inhibitors” (Organic and Medicinal Chemistry Letters, 2011).

One data set concerns the target T1, plasma DPP-IV (Rattus norvegicus, UniProt P14740).
T1 construct: from tissue; host or cells: plasma of Wistar/ST rats
The data set can be described thus: Inhibition of rat plasma DPP-IV ex vivo during OGTT. It counts as in vivo, Wistar/ST rats. The note with it: for inhibition at 1 mg/kg: 1 mg/kg oral. As for the experimental part:
After 30 min (t = 0), oral glucose challenges (1 g/kg) were conducted and then plasma DPP-IV activities and blood glucose levels were monitored at various intervals over a 2 h period. […].
(§1) All procedures were approved by the Sanwa Kagaku Kenkyusho Institutional Animal Care and Use Committee. 7-week old Wistar/ST rats were housed under standard conditions and allowed free access to water and a commercial diet for at least 5 days. […] After an oral glucose challenge (5 mL/kg of an aqueous solution of 20% glucose), blood samples were collected from the tail vein of each animal into heparin-containing tubes at serial time points for 2 h. Plasma was prepared immediately, frozen, and stored at -20°C prior to analysis.
Plasma DPP-IV activity was determined as described above. A 20 μL plasma sample was mixed with 5 μL of reaction buffer (140 mM NaCl, and 10 mM KCl, 25 mM Tris-HCl, pH 7.4, 1% bovine serum albumin) and 10 μL of buffer containing 60 μM H-Gly-Pro-AMC. After incubation at room temperature for 30 min, the reaction was stopped by the addition of 20 μL of 25% aqueous acetic acid and fluorescence was measured using an excitation wavelength of 360 nm and an emission wavelength of 460 nm.

A short description of data set [1]: Metabolic stability in rat liver microsomes. The class given is in vitro ADME. The note with it: 5 μM. Here is the method:
(§2) The incubation mixture containing 0.25 mg of rat or human liver microsomes was preincubated with an NADPH-generating system for 5 min at 37°C. The reaction was started by the addition of 5 μL of a DMSO solution containing the test compound (5 μM). At t = 0 and at two additional time points between 0 and 30 min, aliquots (100 μL) were removed and added to termination mixtures (CH3CN). Proteins were sedimented by centrifugation and an aliquot of the supernatant was analyzed by LC/MS/MS.
(§3) In determinations of the in vitrot1/2, the analyte/ISTD peak area ratio was converted to percentage of drug remaining by assigning a value of 100% to the peak area ratio at t = 0. The slope of the regression line fitted to the log (percentage remaining) versus incubation time relationship (-k) was used in the conversion of raw data to the in vitrot1/2 value. In vitro CLint was calculated using the following formula.
(§4) CLint=0.693/Invitro t1/2×mL incubation/mg microsomes×45 mg microsomes/mg liver×[…] (b.w.)
Background: Microsomes from liver hold many membrane-bound enzymes, among them those of drug oxidation.

The next data set deals with CYP3A. The experiment in a line: CYP3A enzyme induction in rat hepatocytes (testosterone 6β-hydroxylation). The class given is in vitro ADME. The note with it: rat hepatocytes, 1, 10, 50 μM, 2 days. Here is the method: Enzyme induction was evaluated as follows: Hepatocytes isolated from male SD rats were maintained in culture for 1 day before treatment with the test compound or P-450 inducers. The cells were treated with the test compound (1, 10, 50 μM), β-naphthoflavone (10 μM, CYP1A inducer), phenobarbital (50 μM, CYP2B inducer), dexamethasone (10 μM, CYP3A inducer), or vehicle (0.1% DMSO final volume; used as negative control) for 2 days.
Induction of CYP1A, CYP2B, and CYP3A enzymes was determined based on measurements of 7-ethoxyresorufin O-dealkylation, 7-pentoxyresorufin O-dealkylation, and testosterone 6β-hydroxylation, respectively. Assays were started by the addition of Krebs-Henseleit buffer containing 8 μM 7-ethoxyresorufin, 10 μM 7-pentoxyresorufin, or 250 μM testosterone at a volume of 100 μL per well. After incubation at 37°C for 30 min, aliquots were removed and analyzed by fluorometry (an excitation wavelength of 538 nm and an emission wavelength of 590 nm) or LC/MS/MS to determine the quantities of metabolites formed. Any test compound causing a dose-dependent change equal to or greater than 10% of the positive control (see formula below) was considered an enzyme inducer.
% positive control=(activity of test - compound treated cells - activity of negative control)/(activity of positive control - activity of negative control)×100

The nature of data set [2]: Pharmacokinetics (PK) in SD rats. The class given is in vivo, Sprague-Dawley (SD) rats. The note with it: for AUC(0-t): read-out: AUC 0-9 h. Here is the method: Sprague-Dawley (SD) rats were housed under standard conditions and allowed free access to water and a commercial diet. On the day before the experiment, rats were fasted overnight and for the first 12 h of the experiment. […] Blood samples were collected from the jugular vein of each animal with a heparinized syringe under diethyl ether anesthesia at serial time points for 24 h after drug administration. Plasma was obtained by centrifugation at 4°C and stored at -70°C until analysis. Protein precipitation was carried out by the addition of the internal standard solution (70% CH3CN with 0.2% acetic acid) to samples. The tubes underwent vigorous shaking and centrifugation for 5 min; then the supernatant was subjected to LC/MS/MS analysis. Peak areas were determined using Xcalibur® software (Thermo Electron Corporation, UK) and AUC values were calculated by the trapezoidal rule.

The nature of data set [3]: Metabolic stability in human liver microsomes. The note with it: read-out: CL'int Human (converted). The class given is in vitro ADME. As for the experimental part: as §2, §3, §4
A further data set relates to plasma insulin. The data set can be described thus: Plasma insulin after glucose challenge in OGTT. The class given is in vivo. To be noted: Wistar/ST rats, oral 4b, 10 min after glucose challenge. As for the experimental part:
(§5) After 30 min (t = 0), oral glucose challenges (1 g/kg) were conducted and then plasma DPP-IV activities and blood glucose levels were monitored at various intervals over a 2 h period.
as §1
(§6) Plasma glucose and insulin were determined with a glucometer (Glutest Pro; SKK, Japan) and a rat insulin ELISA kit (Shibayagi, Japan), respectively, according to the manufacturer's instructions. Statistical analyses were performed using Microsoft Excel. Individual comparisons among more than two experimental groups were assessed using ANOVA, with Fisher's Least Significant Difference post hoc test. Differences were considered significant at P values < 0.05. Analysis of dose-response data was performed by Dunnett's test.

For another data set, the system named is blood glucose. The experiment in a line: Oral glucose tolerance test (OGTT), blood glucose. To be noted: Wistar/ST rats, 1 mg/kg oral, glucose challenge 1 g/kg. It counts as in vivo. Here is the method:
as §5, §1, §6

In another data set the target is T2, human plasma DPP-IV (Homo sapiens, UniProt P27487).
T2 construct: from tissue; host or cells: human plasma
The data set can be described thus: IC50 with respect to human plasma DPP-IV (separate experiments). The class given is biochemical. To be noted: separate experiments (footnote a). The source says:
Table 1 Inhibition of DPP-IV, -8 and -9 activity by 1,3-dihydroisoindoline derivatives 4, their metabolic clearance by rat and human and their enzyme-inducing (CYP1A, CYP2B, and CYP3A) capacity | column: IC50 (nM) / DPP-IV

Data set [4] is described as follows: Further PK studies: metabolite identification by LC-MS, in vivo conversion of 4b into 4l. The note with it: rats, after dosing of 4b. Here is the method:
Therefore, further PK studies were conducted. A major metabolite was detected by LC-MS analysis and its structure was determined by comparison of the LC retention time and MS/MS fragmentation pattern with synthetic standards.

[5] abbreviates: Sprague-Dawley, rat, plasma, po 3 mg/kg.
Setting [6] is: Sprague-Dawley, rat, plasma, po 10 mg/kg.

Where two headings read alike, the source gives them in different places.

T1 sequence (P14740 37-767 limits assumed): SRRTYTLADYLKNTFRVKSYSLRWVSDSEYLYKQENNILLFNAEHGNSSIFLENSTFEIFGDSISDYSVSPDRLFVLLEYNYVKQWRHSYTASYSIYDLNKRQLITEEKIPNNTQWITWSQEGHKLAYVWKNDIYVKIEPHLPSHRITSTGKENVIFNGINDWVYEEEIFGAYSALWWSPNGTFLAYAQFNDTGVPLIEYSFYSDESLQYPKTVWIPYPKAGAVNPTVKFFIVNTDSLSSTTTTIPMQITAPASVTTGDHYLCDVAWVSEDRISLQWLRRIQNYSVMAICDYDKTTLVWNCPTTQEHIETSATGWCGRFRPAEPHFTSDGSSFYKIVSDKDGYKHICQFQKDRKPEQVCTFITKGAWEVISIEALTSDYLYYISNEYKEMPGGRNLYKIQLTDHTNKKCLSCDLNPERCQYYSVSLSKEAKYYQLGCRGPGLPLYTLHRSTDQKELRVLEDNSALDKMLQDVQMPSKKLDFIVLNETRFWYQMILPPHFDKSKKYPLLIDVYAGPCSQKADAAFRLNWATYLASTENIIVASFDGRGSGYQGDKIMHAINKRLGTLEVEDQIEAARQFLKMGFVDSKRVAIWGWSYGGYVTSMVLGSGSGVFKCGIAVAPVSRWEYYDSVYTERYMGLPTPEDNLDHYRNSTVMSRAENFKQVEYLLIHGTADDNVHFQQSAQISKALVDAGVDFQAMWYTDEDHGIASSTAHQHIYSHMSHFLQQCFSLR
T2 sequence (P27487 39-766 limits assumed): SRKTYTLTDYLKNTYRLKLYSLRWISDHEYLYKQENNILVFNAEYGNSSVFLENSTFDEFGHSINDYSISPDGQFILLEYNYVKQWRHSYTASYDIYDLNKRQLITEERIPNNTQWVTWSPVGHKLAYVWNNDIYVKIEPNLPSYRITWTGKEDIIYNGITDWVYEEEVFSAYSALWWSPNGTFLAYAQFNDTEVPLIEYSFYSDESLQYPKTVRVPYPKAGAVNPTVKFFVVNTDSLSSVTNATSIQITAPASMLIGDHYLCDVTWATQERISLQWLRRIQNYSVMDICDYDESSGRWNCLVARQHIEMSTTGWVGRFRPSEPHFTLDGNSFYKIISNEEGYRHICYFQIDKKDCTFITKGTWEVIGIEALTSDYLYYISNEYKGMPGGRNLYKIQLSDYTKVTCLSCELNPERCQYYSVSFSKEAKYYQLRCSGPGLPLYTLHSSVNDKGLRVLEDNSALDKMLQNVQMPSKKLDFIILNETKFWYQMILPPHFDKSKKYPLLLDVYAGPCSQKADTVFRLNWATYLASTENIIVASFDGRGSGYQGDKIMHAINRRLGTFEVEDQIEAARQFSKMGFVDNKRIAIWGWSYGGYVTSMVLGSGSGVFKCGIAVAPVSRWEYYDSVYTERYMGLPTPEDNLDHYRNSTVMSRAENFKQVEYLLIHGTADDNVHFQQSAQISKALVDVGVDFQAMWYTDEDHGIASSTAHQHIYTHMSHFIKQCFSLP

As for `Cc1ccc2c(c1)CN(C(=O)CC(C)(C)NCC(=O)N1CCC[C@H]1C#N)C2` [Compound 4b, (S)-1-(2-(2-Methyl-4-(5-methylisoindolin-2-yl)-4-oxobutan-2-ylamino)acetyl)pyrrolidine-2-carbonitrile], the “inhibition of DPP-IV estimated from the PK profiles” value on plasma DPP-IV (3-10 mg/kg doses, for several hours, estimated from the PK profiles) is over 50%. Also, the inhibition (as a rule, how much of the control response was suppressed) at 0.1 mg/kg against plasma DPP-IV (rat, Wistar/ST rats, 0.1 mg/kg oral) stood at 30%. Also, the inhibition at 1 mg/kg on plasma DPP-IV (rat, Wistar/ST rats, over 2 h period after glucose challenge, read-out: inhibition of plasma DPP-IV activity maintained throughout the study) was over 90%; at plasma DPP-IV (rat, Wistar/ST rats, within 30 min post-dose, read-out: inhibition of plasma DPP-IV activity) it was 95%. In data set [1], the “CL'int Rat” value was found to be 38.3 mL/min/kg. Also, the “Enzyme induction (rat) CYP3A” value with CYP3A is recorded as “- (Any test compound causing a dose-dependent change equal to or greater than 10% of the positive control (see formula below) was considered an enzyme inducer)”. Moreover, the AUC(0-t) turned out to be 39 ng·h/mL in data set [2] (Sprague-Dawley, rat, plasma, iv 1 mg/kg); 33 ng·h/mL in [2] (setting [5]); 156 ng·h/mL in data set [2] (setting [6]). Moreover, the clearance in [2] (Sprague-Dawley, rat, plasma, iv 1 mg/kg, read-out: CL p (converted)) was 437 mL/min/kg. Also, the volume of distribution (Vd) (usually the apparent volume that relates the amount in the body to the concentration in plasma or blood) in data set [2] (Sprague-Dawley, rat, plasma, iv 1 mg/kg, read-out: Vd ss) was determined as 8.28 L/kg. Also, the Cmax (in general, the peak of the concentration-time curve) was found to be 37 ng/mL in data set [2] (setting [5]) and 229 ng/mL in data set [2] (setting [6]). The time to peak (Tmax) in [2] (setting [5]) and in data set [2] (setting [6]) was 15 min each time. Further, the “t 1/2α” value in [2] (iv 1 mg/kg, first t 1/2 column) worked out at 3.72 min; in [2] (iv 1 mg/kg, second t 1/2) it was 16.2 min; in data set [2] (po 3 mg/kg, second t 1/2) it was 82.2 min; in data set [2] (po 10 mg/kg, second t 1/2), 90 min. Moreover, the BA in data set [2] (po 3 mg/kg) was 27.7%; in data set [2] (po 10 mg/kg) it was 39.9%. In data set [3], the CLint scaled at 5 μM was 1.67 mL/min/kg. Besides, in the data set on plasma insulin, the “insulin levels at 10 min post-challenge” value is recorded as “increased”. Besides, the “reduction of glucose levels in OGTT” value in the data set on blood glucose was 18%.
`CC(C)(CC(=O)N1Cc2ccc(CO)cc2C1)NCC(=O)N1CCC[C@H]1C#N` [Compound 4l, (S)-1-(2-(4-(5-(Hydroxymethyl)isoindolin-2-yl)-2-methyl-4-oxobutan-2-ylamino)acetyl)pyrrolidine-2-carbonitrile]: at human plasma DPP-IV, it took 1.9 nM to reach half-maximal inhibition (IC50). Besides, the “in vivo conversion (of 4b into metabolite 4l)” value in [4] is 60%.
